The source made the active and inactive calls. The calls are words filed in the database; no cut-off is given here.
Legend:
[1] = biological target: G-protein coupled receptor 52 (Mus musculus) (UniProt P0C5J4); assay: In vivo antagonist activity at GPR52 in wild type mouse model assessed as reduction in wild type HTT levels at 0.5 mM, icv QD for 3 weeks by TR-FRET analysis; format: functional
[2] = biological target: G-protein coupled receptor 52 (Mus musculus) (UniProt P0C5J4); assay: Antagonist activity at GPR52 in neurons from HdhQ7/Q140 mouse assessed as decrease in mHTT levels at 0.3 to 3 uM incubated for 48 hrs in presence of 2B7-terbium and 2166-D2 antibodies by western blot analysis; details: Neuron, filed as antagonist, dose 0.3-3 µM
[3] = biological target: G-protein coupled receptor 52 (Mus musculus) (UniProt P0C5J4); assay: In vivo antagonist activity at GPR52 in HdhQ140 knock-in mouse model assessed as reduction in mHTT aggregate levels in cortex in presence of 4C9 antibody labelled with terbium at 5 mg/kg, iv QD for 4 weeks by TR-FRET analysis; format: functional, organism-based
[4] = system: Neuron; assay: Neuroprotective activity in neurons from HdhQ7/Q140 mouse assessed as rescue from mHTT-induced neuronal loss by measuring reduction in caspase 3 activity at 3 uM incubated for 48 hrs maintained in absence of growth factor N2 and B27 under starvation condition by green fluorescent dye based assay; format: functional, tissue-based
[5] = biological target: G-protein coupled receptor 52 (Mus musculus) (UniProt P0C5J4); assay: Antagonist activity at GPR52 in mouse STHdhQ7/111 cells assessed as decrease in mHTT levels at 1 to 10 uM incubated for 48 hrs in presence of 2B7-terbium and 2166-D2 antibodies by western blot analysis; format: cell-based; details: filed as antagonist, dose 1-10 µM
[6] = biological target: G-protein coupled receptor 52 (Mus musculus) (UniProt P0C5J4); assay: Antagonist activity at GPR52 in neurons from HdhQ7/Q140 mouse assessed as decrease in mHTT levels at 0.1 to 3 uM incubated for 48 hrs in presence of 2B7-terbium and 2166-D2 antibodies by TR-FRET analysis; format: tissue-based; details: Neuron, filed as antagonist, dose 0.1-3 µM
[7] = biological target: G-protein coupled receptor 52 (Mus musculus) (UniProt P0C5J4); assay: In vivo antagonist activity at GPR52 in HdhQ140 knock-in mouse model assessed as reduction in soluble mHTT levels in cortex at 5 mg/kg, iv QD for 4 weeks by TR-FRET analysis; format: functional, organism-based
[8] = biological target: G-protein coupled receptor 52 (Mus musculus) (UniProt P0C5J4); assay: In vivo antagonist activity at GPR52 in wild type mouse model assessed as reduction in soluble mHTT levels at 5 mg/kg, iv QD for 4 weeks by TR-FRET analysis; format: functional, organism-based
[9] = system: Mus musculus; assay: Neuroprotective activity in HdhQ140 mouse model assessed as rescue of motor deficiency by measuring crossing time at 5 mg/kg, iv QD for 4 weeks by balance beam test; format: functional, organism-based
[10] = Neurotoxicity in wild type mouse assessed as effect on motor deficiency by measuring crossing time at 5 mg/kg, iv QD for 4 weeks by balance beam test; format: toxicity, organism-based; details: in vivo, 672 h
[11] = Neurotoxicity in wild type mouse assessed as motor deficiency by measuring latency to fall at 5 mg/kg, iv QD for 4 weeks by rotarod test; format: toxicity, organism-based; details: in vivo, 672 h
[12] = biological target: G-protein coupled receptor 52 (Mus musculus) (UniProt P0C5J4); assay: In vivo antagonist activity at GPR52 in HdhQ140 knock-in mouse model assessed as reduction in mHTT levels in cortex at 0.5 mM, icv QD for 3 weeks by TR-FRET analysis; format: functional
[13] = biological target: G-protein coupled receptor 52 (Mus musculus) (UniProt P0C5J4); assay: Antagonist activity at GPR52 in neurons from HdhQ7/Q140 mouse assessed as decrease in wild type HTT levels at 0.3 to 3 uM incubated for 48 hrs in presence of 2B7-terbium and 2166-D2 antibodies by western blot analysis; format: tissue-based; details: Neuron, filed as antagonist, dose 0.3-3 µM
[14] = biological target: G-protein coupled receptor 52 (Homo sapiens, UniProt Q9Y2T5); assay: Antagonist activity at GPR52 (unknown origin) expressed in HEK293 cells assessed as inhibition of WO459-induced cAMP accumulation preincubated for 15 mins followed by WO459 addition and measured after 30 mins by LANCE Ultra cAMP kit based microplate reader analysis; format: functional, cell-based; details: read-out: IC50
Sequence of G-protein coupled receptor 52 (Q9Y2T5 whole entry): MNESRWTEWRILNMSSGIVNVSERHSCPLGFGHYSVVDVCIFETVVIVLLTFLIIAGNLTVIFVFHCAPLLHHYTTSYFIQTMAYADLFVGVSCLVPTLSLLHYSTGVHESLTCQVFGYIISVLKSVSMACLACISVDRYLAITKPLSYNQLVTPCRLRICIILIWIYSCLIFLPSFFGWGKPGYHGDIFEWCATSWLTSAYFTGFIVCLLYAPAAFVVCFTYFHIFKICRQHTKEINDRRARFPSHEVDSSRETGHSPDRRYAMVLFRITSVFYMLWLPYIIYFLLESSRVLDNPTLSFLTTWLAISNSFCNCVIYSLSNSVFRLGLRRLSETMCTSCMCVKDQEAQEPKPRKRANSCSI

[15] = system: Neuron; assay: Neuroprotective activity in neurons from HdhQ7/Q140 mouse assessed as rescue from mHTT-induced neuronal loss at 3 uM incubated for 48 hrs maintained in absence of growth factor N2 and B27 under starvation condition by immunostaining based analysis; format: functional, tissue-based
[16] = biological target: T1, Alpha-1D adrenergic receptor (Homo sapiens) (UniProt P25100); assay: Antagonist activity at alpha1D adrenergic receptor (unknown origin) expressed in HEK293 cells assessed as inhibition of phenylephrine-induced cAMP accumulation; format: functional, cell-based
T1 sequence (whole entry): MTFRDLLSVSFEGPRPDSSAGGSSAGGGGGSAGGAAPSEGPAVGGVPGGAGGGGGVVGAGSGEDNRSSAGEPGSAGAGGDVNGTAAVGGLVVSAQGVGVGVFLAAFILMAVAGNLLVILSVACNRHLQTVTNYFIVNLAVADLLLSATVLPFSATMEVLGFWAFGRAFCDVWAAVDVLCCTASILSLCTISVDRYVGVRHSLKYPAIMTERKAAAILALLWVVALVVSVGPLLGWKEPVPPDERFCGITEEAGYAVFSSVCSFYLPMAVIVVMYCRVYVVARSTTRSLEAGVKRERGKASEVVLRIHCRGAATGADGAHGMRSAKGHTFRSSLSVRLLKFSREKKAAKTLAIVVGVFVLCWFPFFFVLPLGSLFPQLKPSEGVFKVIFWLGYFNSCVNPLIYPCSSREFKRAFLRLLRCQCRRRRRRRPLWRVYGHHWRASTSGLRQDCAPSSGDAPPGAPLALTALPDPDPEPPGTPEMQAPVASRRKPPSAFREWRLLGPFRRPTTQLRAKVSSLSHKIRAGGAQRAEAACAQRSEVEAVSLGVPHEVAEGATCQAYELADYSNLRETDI

[17] = biological target: G-protein coupled receptor 52 (Mus musculus) (UniProt P0C5J4); assay: In vivo antagonist activity at GPR52 in wild type mouse model assessed as reduction in mHTT aggregate levels in striatum in presence of 4C9 antibody labelled with terbium at 5 mg/kg, iv QD for 4 weeks by TR-FRET analysis; format: functional, organism-based
[18] = biological target: Glucagon receptor (Homo sapiens) (UniProt P47871); assay: Antagonist activity at GCGR (unknown origin) expressed in HEK293 cells assessed as inhibition of glucagon-induced cAMP accumulation; format: functional, cell-based
Sequence of Glucagon receptor (Homo sapiens) (P47871 whole entry): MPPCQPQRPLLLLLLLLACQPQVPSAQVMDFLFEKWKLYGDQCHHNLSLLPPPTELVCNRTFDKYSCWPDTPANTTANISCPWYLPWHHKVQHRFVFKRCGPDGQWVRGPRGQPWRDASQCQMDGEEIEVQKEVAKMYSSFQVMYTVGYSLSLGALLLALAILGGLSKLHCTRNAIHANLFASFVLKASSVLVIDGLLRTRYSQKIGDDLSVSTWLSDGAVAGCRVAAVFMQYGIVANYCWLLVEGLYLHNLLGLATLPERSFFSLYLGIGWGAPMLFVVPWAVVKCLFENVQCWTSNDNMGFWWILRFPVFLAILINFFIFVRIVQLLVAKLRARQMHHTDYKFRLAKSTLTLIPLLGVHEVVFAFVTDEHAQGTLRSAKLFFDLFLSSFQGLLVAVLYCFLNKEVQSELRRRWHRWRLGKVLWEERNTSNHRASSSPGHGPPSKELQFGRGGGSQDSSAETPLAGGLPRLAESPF

[19] = system: STHdhQ7/111; assay: Decrease in mHTT level in GPR52 knockdown mouse STHdhQ7/111 cells with at 1 to 10 uM incubated for 48 hrs in presence of 2B7-terbium and 2166-D2 antibodies by TR-FRET analysis; format: functional, cell-based; details: dose 1-10 µM
[20] = biological target: D(2) dopamine receptor (Homo sapiens) (UniProt P14416); assay: Antagonist activity at dopamine D2 receptor (unknown origin) expressed in HEK293 cells assessed as inhibition of dopamine-induced cAMP accumulation; format: functional, cell-based
Sequence of D(2) dopamine receptor (Homo sapiens) (P14416 whole entry): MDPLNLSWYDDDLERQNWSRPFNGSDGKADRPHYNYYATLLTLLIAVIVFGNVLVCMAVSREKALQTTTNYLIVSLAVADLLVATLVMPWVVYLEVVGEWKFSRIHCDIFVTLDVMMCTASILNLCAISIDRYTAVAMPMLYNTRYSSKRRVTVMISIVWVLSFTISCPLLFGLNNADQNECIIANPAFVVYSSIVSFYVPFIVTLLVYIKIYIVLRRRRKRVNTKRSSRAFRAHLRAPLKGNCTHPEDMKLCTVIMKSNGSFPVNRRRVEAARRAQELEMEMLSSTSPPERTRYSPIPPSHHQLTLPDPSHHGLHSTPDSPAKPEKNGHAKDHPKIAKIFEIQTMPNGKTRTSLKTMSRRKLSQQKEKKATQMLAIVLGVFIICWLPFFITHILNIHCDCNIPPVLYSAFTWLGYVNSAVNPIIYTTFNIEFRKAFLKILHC

[21] = biological target: G-protein coupled receptor 52 (Mus musculus) (UniProt P0C5J4); assay: In vivo antagonist activity at GPR52 in HdhQ140 knock-in mouse model assessed as reduction in soluble mHTT levels in striatum at 5 mg/kg, iv QD for 4 weeks by TR-FRET analysis; format: functional, organism-based

Sequence of G-protein coupled receptor 52 (Mus musculus) (P0C5J4 whole entry): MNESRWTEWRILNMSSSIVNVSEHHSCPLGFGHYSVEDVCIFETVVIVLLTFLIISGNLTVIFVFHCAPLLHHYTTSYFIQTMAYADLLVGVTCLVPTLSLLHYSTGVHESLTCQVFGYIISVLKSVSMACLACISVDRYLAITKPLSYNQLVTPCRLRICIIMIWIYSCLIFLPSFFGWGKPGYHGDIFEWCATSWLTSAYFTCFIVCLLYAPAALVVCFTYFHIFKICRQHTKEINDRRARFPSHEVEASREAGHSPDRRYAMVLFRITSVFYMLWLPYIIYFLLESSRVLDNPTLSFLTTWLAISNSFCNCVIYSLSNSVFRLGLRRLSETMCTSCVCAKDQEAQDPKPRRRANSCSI

- Activity [1]: inactive
- Activity [2]: Active
- Activity [3]: inactive
- Activity [4]: Active
- Activity [5]: Active
- Activity [6]: Active
- Activity [7]: inactive
- Activity [8]: inactive
- Activity [12]: inactive
- Activity [13]: Active
- IC50 [14]: 630 nM
- Activity [16]: inactive
- Activity [17]: inactive
- Activity [18]: inactive
- Activity [20]: inactive
- Activity [21]: Active
Compound: O=C(/C=C/CCc1ccccc1)c1ccco1
- Activity [9]: Active
- Activity [10]: Non-Toxic
- Activity [11]: Non-Toxic
- Activity [15]: Active
- Activity [19]: inactive
